Test results taken from US20220144768A1, “SOLID STATE FORMS OF SIPONIMOD” (DR. REDDY'S LABORATORIES LIMITED, priority 2019, published 2022).

Test: Solid form stability on storage, analyzed using PXRD
Type: physicochemical
Description: The crystalline Form S2 of Siponimod prepared by the process of the present application is kept at about 25° C. After three months the solid was analyzed using PXRD. […] The crystalline Form S2 of Siponimod prepared by the process of the present application is kept at about 70° C. After three months the solid was analyzed using PXRD.
In another aspect, the present application provides stable amorphous Siponimod. […] The amorphous Siponimod prepared by the process of the present application is kept in a […] at about 5° C. After one year the solid was analyzed using PXRD.
The amorphous form of siponimod prepared in example-3 was kept in an amber colored glass bottle at 2-8° C. for one year and the solid was analyzed using PXRD.

| stability of the amorphous form (time stable) (amorphous form, storage, PXRD) | solid form after storage (PXRD) (kept in a freezer at about 5° C., after one year, PXRD shown in FIG. 7) | stability of the crystalline form (time stable) (crystalline Form S2, storage, PXRD) | solid form after storage (PXRD) (kept at about 25° C., after three months, PXRD matches FIG. 3) | solid form after storage (PXRD) (kept at about 70° C., after three months, PXRD matches FIG. 3) | SMILES |
| --- | --- | --- | --- | --- | --- |
| stable for at least one year | remains in amorphous form |  |  |  | CCc1cc(/C(C)=N/OCc2ccc(C3CCCCC3)c(C(F)(F)F)c2)ccc1CN1CC(C(=O)O)C1 [amorphous Siponimod] |
|  |  | stable for at least three months | remains in crystalline Form S2 | remains in crystalline Form S2 | CCc1cc(/C(C)=N/OCc2ccc(C3CCCCC3)c(C(F)(F)F)c2)ccc1CN1CC(C(=O)O)C1 [crystalline Form S2 of Siponimod] |
